From patent publication US20230002357A1, “7-PYRIMIDINE-2-YL-OXY-INDAZOLE DERIVATIVES AND THEIR USE AS HERBICIDES” (SYNGENTA CROP PROTECTION AG, priority 2019, published 2023)

How the values were obtained:
Format in all cases: in vivo
Conditions in all cases: 250 g/ha, evaluated after 13 days
Setaria faberi (SETFA) [1] = assay: Post-emergence Test, glasshouse, SETFA
Experimental: (§1) Seeds of a variety of test species are sown in standard soil in pots Amaranthus retoflexus (AMARE), Echinochloa crus-galli (ECHCG), Setaria faberi (SETFA)). After cultivation for one day (pre-emergence) or after 8 days cultivation (post-emergence) under controlled conditions in a glasshouse (at 24/16° C., day/night; 14 hours light; 65% humidity), the plants are sprayed with an aqueous spray solution derived from the formulation of the technical active ingredient in acetone/water (50:50) solution containing 0.5% Tween™ 20 (polyoxyethelyene sorbitan monolaurate, CAS RN 9005-64-5). Compounds are applied at 250 g/ha unless otherwise stated. The test plants are then grown in a glasshouse under controlled conditions in a glasshouse (at 24/16° C., day/night; 14 hours light; 65% humidity) and watered twice daily. After 13 days for pre- and post-emergence, the test is evaluated for the percentage damage caused to the plant. The biological activities are shown in the following table on a five-point scale (5=81-100%; 4=61-80%; 3=41-60%; 2=21-40%; 1=0-20%).

IPOHE [2] = assay: Pre-emergence Test, glasshouse, IPOHE
Experimental: as §1

ABUTH [3] = assay: Pre-emergence Test, glasshouse, ABUTH
Experimental: as §1

[4] = system: Echinochloa crus-galli (ECHCG); assay: Pre-emergence Test, glasshouse, ECHCG
Experimental: as §1

[5] = system: Amaranthus retoflexus (AMARE); assay: Pre-emergence Test, glasshouse, AMARE
Experimental: as §1

[6] = system: Echinochloa crus-galli (ECHCG); assay: Post-emergence Test, glasshouse, ECHCG
Experimental: as §1

Setaria faberi (SETFA) [7] = assay: Pre-emergence Test, glasshouse, SETFA
Experimental: as §1

ABUTH [8] = assay: Post-emergence Test, glasshouse, ABUTH
Experimental: as §1

IPOHE [9] = assay: Post-emergence Test, glasshouse, IPOHE
Experimental: as §1

[10] = system: Amaranthus retoflexus (AMARE); assay: Post-emergence Test, glasshouse, AMARE
Experimental: as §1

| SMILES | percentage damage caused to the plant, five-point scale, SETFA (Setaria faberi (SETFA) [1]) | percentage damage caused to the plant, five-point scale, IPOHE (IPOHE [2]) | percentage damage caused to the plant, five-point scale, ABUTH (ABUTH [3]) | percentage damage caused to the plant, five-point scale, ECHCG [4] | percentage damage caused to the plant, five-point scale, AMARE [5] | percentage damage caused to the plant, five-point scale, ECHCG [6] | percentage damage caused to the plant, five-point scale, SETFA (Setaria faberi (SETFA) [7]) | percentage damage caused to the plant, five-point scale, ABUTH (ABUTH [8]) | percentage damage caused to the plant, five-point scale, IPOHE (IPOHE [9]) | percentage damage caused to the plant, five-point scale, AMARE [10] |
| --- | --- | --- | --- | --- | --- | --- | --- | --- | --- | --- |
| COc1cnc(Oc2cccc3c(Cl)nn(CCCC(F)(F)F)c23)nc1 [Compound 1.048] | 3 (3=41-60%) | 1 (1=0-20%) | 2 (2=21-40%) | 4 (4=61-80%) | 4 (4=61-80%) | 3 (3=41-60%) | 5 (5=81-100%) | 4 (4=61-80%) | 4 (4=61-80%) | 5 (5=81-100%) |
| Cc1ccc2c(Cl)nn(CCCC(F)(F)F)c2c1Oc1ncc(Cl)cn1 [Compound 1.043, 3-chloro-7-(5-chloropyrimidin-2-yl)oxy-6-methyl-1-(4,4,4-trifluorobutyl)indazole] | 3 (3=41-60%) | 1 (1=0-20%) | 1 (1=0-20%) | 3 (3=41-60%) | 5 (5=81-100%) | 3 (3=41-60%) | 4 (4=61-80%) | 3 (3=41-60%) | 4 (4=61-80%) | 4 (4=61-80%) |
| FC(F)(F)CCCn1nnc2c(Cl)ccc(Oc3ncc(Cl)cn3)c21 [Compound 1.072] | 3 (3=41-60%) | 1 (1=0-20%) | 1 (1=0-20%) | 2 (2=21-40%) | 4 (4=61-80%) | 3 (3=41-60%) | 4 (4=61-80%) | 1 (1=0-20%) | 3 (3=41-60%) | 4 (4=61-80%) |
| Fc1cc(Cl)cnc1Oc1cccc2cnn(CCCC(F)(F)F)c12 [Compound 1.002] | 3 (3=41-60%) | 1 (1=0-20%) | 1 (1=0-20%) | 2 (2=21-40%) | 1 (1=0-20%) | 3 (3=41-60%) | 2 (2=21-40%) | 2 (2=21-40%) | 1 (1=0-20%) | 2 (2=21-40%) |
| N#Cc1nn(CCCC(F)(F)F)c2c(Oc3ncc(Cl)cn3)cccc12 [Compound 1.007, 7-(5-chloropyrimidin-2-yl)oxy-1-(4,4,4-trifluorobutyl)indazole-3-carbonitrile] | 5 (5=81-100%) | 2 (2=21-40%) | 3 (3=41-60%) | 5 (5=81-100%) | 5 (5=81-100%) | 5 (5=81-100%) | 5 (5=81-100%) | 5 (5=81-100%) | 4 (4=61-80%) | 5 (5=81-100%) |
| FC(F)(F)CCCCn1nc(Cl)c2cccc(Oc3ncc(Cl)cn3)c21 [Compound 1.068] | 3 (3=41-60%) | 2 (2=21-40%) | 2 (2=21-40%) | 4 (4=61-80%) | 5 (5=81-100%) | 3 (3=41-60%) | 5 (5=81-100%) | 4 (4=61-80%) | 2 (2=21-40%) | 5 (5=81-100%) |
| FCCCCn1nc(Cl)c2cccc(Oc3ncc(Cl)cn3)c21 [Compound 1.039] | 4 (4=61-80%) | 1 (1=0-20%) | 3 (3=41-60%) | 5 (5=81-100%) | 5 (5=81-100%) | 4 (4=61-80%) | 5 (5=81-100%) | 4 (4=61-80%) | 4 (4=61-80%) | 5 (5=81-100%) |
| CC(C)CCn1nc(Cl)c2cccc(Oc3ncc(Cl)cn3)c21 [Compound 1.056] | 2 (2=21-40%) | 1 (1=0-20%) | 1 (1=0-20%) | 3 (3=41-60%) | 4 (4=61-80%) | 2 (2=21-40%) | 4 (4=61-80%) | 3 (3=41-60%) | 3 (3=41-60%) | 4 (4=61-80%) |
| N#Cc1cc(Cl)cnc1Oc1cc(Cl)cc2cnn(CCCC(F)(F)F)c12 [Compound 1.017] | 1 (1=0-20%) | 1 (1=0-20%) | 1 (1=0-20%) | 1 (1=0-20%) | 1 (1=0-20%) | 1 (1=0-20%) | 1 (1=0-20%) | 1 (1=0-20%) | 1 (1=0-20%) | 4 (4=61-80%) |
| FC(F)Cn1nc(Cl)c2cccc(Oc3ncc(Cl)cn3)c21 [Compound 1.063] | 2 (2=21-40%) | 1 (1=0-20%) | 2 (2=21-40%) | 2 (2=21-40%) | 3 (3=41-60%) | 2 (2=21-40%) | 2 (2=21-40%) | 3 (3=41-60%) | 2 (2=21-40%) | 4 (4=61-80%) |
